# Reference: patent US6706664B1, “Benzoxazole compounds, process for the preparation thereof and herbicides” (UBE Industries, Ltd., priority 1999, dated 2004)
# Experiments:
# Parameters in all cases: key: 0: normal development; 1: Less damaged; 2: Slightly damaged; 3: Moderately damaged; 4: Severely damaged; 5: All killed
# young rice plant = assay: Herbicidal test for paddy field; format: in vivo; conditions: paddy field pot, 500 g/ha dropwise at 1.5 leaf stage of barnyardgrass, 3 weeks, rank vs non-treated
# Outline: (§1)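 Scores ran from 0 (normal development) to 5 (all killed) against untreated pots, judged after 3 weeks in a glasshouse averaging 25° C. Compound, as wettable powder diluted in water with 0.05% surfactant, was applied dropwise into 3 cm-deep paddy water at 500 g/ha. Application was at the 1.5-leaf stage of barnyardgrass.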
# barnyardgrass [1] = assay: Herbicidal test for paddy field; format: in vivo, Echinochloa crusgalli; conditions: paddy field pot, 500 g/ha dropwise at 1.5 leaf stage of barnyardgrass, 3 weeks, rank vs non-treated
# Outline: as §1
# bulrush = assay: Herbicidal test for paddy field; format: in vivo, Scrips juncoides; conditions: paddy field pot, 500 g/ha dropwise at 1.5 leaf stage of barnyardgrass, 3 weeks, rank vs non-treated
# Outline: as §1
# flat sedge = assay: Herbicidal test for paddy field; format: in vivo, Cyperus serotinus; conditions: paddy field pot, 500 g/ha dropwise at 1.5 leaf stage of barnyardgrass, 3 weeks, rank vs non-treated
# Method: Wagner pots, each having an area of 1/5000 are, were packed with Ube soil (alluvial soil) and planted with seeds or tubers of young rice plant, barnyardgrass, bulrush, flat sedge and monochoria. Then, the pots were filled with water to a depth of 3 cm.
# Each wettable powder of the desired compounds (I) shown in Table 1 prepared in accordance with Example 2 was diluted with water containing a surfactant (0.05%) and subjected to dropwise addition treatment by using pipet so that an effective concentration of the compound (I) in each herbicide became 500 g/ha at 1.5 leaf stage of barnyardgrass.
# These plants were controlled in a glass house at an average temperature of 25° C. for 3 weeks, and then herbicidal effects thereof were investigated.
# The herbicidal effects are evaluated according to the following 6 ranks as compared with non-treated district.
# (§2) (0: normal development, 1: Less damaged, 2: Slightly damaged, 3: Moderately damaged, 4: Severely damaged, 5: All killed).
# monochoria = assay: Herbicidal test for paddy field; format: in vivo, Monochoria vaginalis; conditions: paddy field pot, 500 g/ha dropwise at 1.5 leaf stage of barnyardgrass, 3 weeks, rank vs non-treated
# Outline: as §1
# corn = assay: Foliar spread test for upland field; format: in vivo; conditions: foliar spray 500 ppm, 3 weeks, rank vs non-treated
# Outline: (§3)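 Crops and weeds grown about 2 weeks in volcanic ash soil in a glasshouse, then sprayed with wettable-powder formulations diluted to 500 ppm in water with 0.5% surfactant. After 3 weeks at 25 °C, injury scored visually 0 (normal) to 5 (all killed).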
# cotton = assay: Foliar spread test for upland field; format: in vivo; conditions: foliar spray 500 ppm, 3 weeks, rank vs non-treated
# Outline: as §3
# solgum = assay: Foliar spread test for upland field; format: in vivo; conditions: foliar spray 500 ppm, 3 weeks, rank vs non-treated
# Outline: as §3
# soybean = assay: Foliar spread test for upland field; format: in vivo; conditions: foliar spray 500 ppm, 3 weeks, rank vs non-treated
# Outline: as §3
# sugar beat = assay: Foliar spread test for upland field; format: in vivo; conditions: foliar spray 500 ppm, 3 weeks, rank vs non-treated
# Outline: as §3
# wheat = assay: Foliar spread test for upland field; format: in vivo; conditions: foliar spray 500 ppm, 3 weeks, rank vs non-treated
# Outline: as §3
# Large crabgrass = assay: Foliar spread test for upland field; format: in vivo, Digitaria adscendens; conditions: foliar spray 500 ppm, 3 weeks, rank vs non-treated
# Outline: (§4)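 Wettable powders at 500 ppm, with 0.5% surfactant, were sprayed uniformly over plants raised for roughly 2 weeks in glasshouse pots of volcanic ash soil. Herbicidal damage rated on a 0–5 scale (5 = all killed) after a further 3 weeks at an average 25 °C.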
# barnyardgrass [2] = assay: Foliar spread test for upland field; format: in vivo, Echinochloa crusgalli; conditions: foliar spray 500 ppm, 3 weeks, rank vs non-treated
# Source text: as §2
# Wagner pots, each having an area of 1/5000 are, were packed with volcanic ash soil and then each seed of corn, soybean, cotton, wheat, solgum, sugar beat, Large crabgrass, barnyardgrass, green foxtail, blackgrass, annual bluegrass, common lambsquartes, livid amaranth, velvetleaf and morning glory was planted, covered with soil and grown in a glass house at an average temperature of […] for about 2 weeks.
# Each wettable powder of the desired compounds (I) shown in Table 1 prepared in accordance with Example 2 was diluted to 500 ppm with water containing a surfactant (0.5%) and then uniformly sprayed on the above respective plants.
# After these plants were controlled in a glass house at an average temperature of 25° C. for 3 weeks, the herbicidal effects thereof were investigated.
# The herbicidal effects were evaluated according to the evaluation method described in the above (1).
# green foxtail = assay: Foliar spread test for upland field; format: in vivo, Setaria viridis; conditions: foliar spray 500 ppm, 3 weeks, rank vs non-treated
# Outline: as §4
# blackgrass = assay: Foliar spread test for upland field; format: in vivo, Alopecurus aegualis; conditions: foliar spray 500 ppm, 3 weeks, rank vs non-treated
# Outline: as §4
# annual bluegrass = assay: Foliar spread test for upland field; format: in vivo, Poa annua; conditions: foliar spray 500 ppm, 3 weeks, rank vs non-treated
# Outline: as §4
# common lambsquartes = assay: Foliar spread test for upland field; format: in vivo, Chenopodium album; conditions: foliar spray 500 ppm, 3 weeks, rank vs non-treated
# Outline: as §4
# livid amaranth = assay: Foliar spread test for upland field; format: in vivo, Amaranthus lividus; conditions: foliar spray 500 ppm, 3 weeks, rank vs non-treated
# Outline: as §4
# velvetleaf = assay: Foliar spread test for upland field; format: in vivo, Abutilon theophrasti; conditions: foliar spray 500 ppm, 3 weeks, rank vs non-treated
# Outline: as §4
# morning glory = assay: Foliar spread test for upland field; format: in vivo, Ipomoea spps.; conditions: foliar spray 500 ppm, 3 weeks, rank vs non-treated
# Outline: as §4
compound,measurement,setting,value
CCCC(Oc1cccc(C#N)c1)c1nc2cc(Cl)ccc2o1 (centres unmarked) [Compound 457],Effect Young rice plant,young rice plant,1
same,Effect Barnyardgrass,barnyardgrass [1],4
same,Effect Bulrush,bulrush,4
same,Effect Flat sedge,flat sedge,4
same,Effect Monochoria,monochoria,4
same,Effects Corn,corn,1
same,Effects Cotton,cotton,3
same,Effects Solgum,solgum,2
same,Effects Soybean,soybean,3
same,Effects Sugar beat,sugar beat,3
same,Effects Wheat,wheat,2
same,Effects Large crabgrass,Large crabgrass,2
same,Effects Barnyardgrass,barnyardgrass [2],2
same,Effects Green foxtail,green foxtail,3
same,Effects Blackgrass,blackgrass,2
same,Effects Annual bluegrass,annual bluegrass,2
same,Effects Common lambsquarters,common lambsquartes,3
same,Effects Livid amaranth,livid amaranth,4
same,Effects Velvetleaf,velvetleaf,3
same,Effects Morning glory,morning glory,3
